Like-named read-outs stand apart in the source and are kept apart here.
Experiments:
LNCaP cells = test: Growth inhibition by cell counting, LNCaP cells; assay type: cell-based; conditions: Homo sapiens, 100 μg/ml, read-out: growth inhibition as compared to controls
Experimental: DU145 and LNCaP cells were obtained from ATCC. The cells were grown in Eagle's MEM supplemented with 1 mM sodium pyruvate, 0.1 mM glutamine, 1.5 g/l sodium bicarbonate, and 10% fetal bovine serum. A confluent plate of cells contained approximately 2×10^6 DU145cells and 10^6 LNCaP cells.
The test drug dissolved in DMSO at a concentration of 100 mg/ml was added to 6 test plates and to control plates. Two control and two drug plates each were harvested with addition of 1 ml/plate of trypsin-EDTA at 24, 48, and 72 hrs and counted by […]. The trypsinized plates were incubated for 3 min at 37° C., and 5 ml DMEM was added to each plate. Cells were collected in 15 ml tubes, and 2 ml of each cell suspension was added to 20 ml Isoton and counted.

DU145 (prostate cancer) = test: 3-day MTT assay, DU145 cells; assay type: cell-based, human; conditions: DU145, 195 ng/ml phytochemical alone
Experimental: (§1) Biological activities of the materials produced as described in Examples 1 to 5 were determined using cultured cells. The IC50s of Boswellin (“BA1”), AKBA enriched peracetylated boswellin (“BA2”) and AKBA enriched boswellin (“BA3”) in various human and murine prostate, leukemia, melanoma, lung and breast cancer cell lines were determined. The IC50s were determined using a standard MTT assay using CEM (lymphoblastic leukemia), Du 145 (prostate cancer), PC-3 (prostate cancer), LNCaP (prostate cancer), Sk-MEL2 (human melanoma), P388D1 (murine leukemia), K562 (human mycloid leukemia), A549 (human lung cancer), MCF-7 (human breast cancer), B16F (murine melanoma) cancer cell lines (Table 2).
(§2) DU145, PC-3 and CEM cells in culture we studied to determine whether other natural products have synergistic effects with AKBA enriched boswellin. Methods for culturing the cells are described above in Example 6. To different samples of cells, we added AKBA enriched boswellin in concentrations from 0 to 120 μg/ml, resveratrol in concentrations from 0 to 3125 ng/ml, baicalin in concentrations from 0 to 3125 ng/ml and licochalcone A in concentrations from 0 to 800 μg/ml. In analogous concentrations combinations of AKBA enriched boswellin and resveratrol, baicalin and licochalcone A were studied. Cell survival was measured using the MTT assay described above.

[1] = system: CEM (lymphoblastic leukemia); test: 3-day MTT assay, CEM cells; assay type: cell-based, human; conditions: 195 ng/ml phytochemical alone
Experimental: as §1, §2

PC-3 (prostate cancer) = test: 3-day MTT assay, PC-3 cells; assay type: cell-based, human
Experimental: as §2, with “The IC50s were determined using a standard MTT assay using CEM (lymphoblastic leukemia), Du 145 (prostate cancer), PC-3 (prostate cancer), LNCaP (prostate cancer), Sk-MEL2 (human melanoma), P388D1 (murine leukemia), K562 (human mycloid leukemia), A549 (human lung cancer), MCF-7 (human breast cancer), B16F (murine melanoma) cancer cell lines (Table 2). […] DU145,” for “DU145,”

## O=c1c(-c2ccc(O)cc2)coc2cc(O)cc(O)c12 [Genistein]
LNCaP cells; 24 h
  inhibition at 100 µg/mL: 32%
LNCaP cells; 48 h
  inhibition at 100 µg/mL: 49.4%
LNCaP cells; 72 h
  inhibition at 100 µg/mL: 60.8%

## O=C(O)[C@H]1O[C@@H](Oc2cc3oc(-c4ccccc4)cc(=O)c3c(O)c2O)[C@H](O)[C@@H](O)[C@@H]1O [baicalin]
DU145 (prostate cancer)
  % cell survival (conc. phytochemical): 78 (195 ng/ml baicalin) %
[1]
  % cell survival (conc. phytochemical): 85 (195 ng/ml baicalin) %
PC-3 (prostate cancer); PC-3, 12 ng/ml phytochemical alone
  % cell survival (conc. phytochemical): 93 (12 ng/ml baicalin) %

## C=CC(C)(C)c1cc(/C=C/C(=O)c2ccc(O)cc2)c(OC)cc1O [licochalcone A]
PC-3 (prostate cancer); PC-3, 3.1 μg/ml phytochemical alone
  % cell survival (conc. phytochemical): 98 (3.1 μg/ml licochalcone A) %

## Oc1ccc(C=Cc2cc(O)cc(O)c2)cc1 [resveratrol]
DU145 (prostate cancer)
  % cell survival (conc. phytochemical): 89 (195 ng/ml resveratrol) %
[1]
  % cell survival (conc. phytochemical): 85 (195 ng/ml resveratrol) %
